Experimental data from the NIST ThermoML archive (doi:10.1021/acs.jced.7b01053).
Several values for one entry are separate records, joined by “and”; a condition that tells them apart may be missing. Identical values can stand only once. ± gives the expanded uncertainty stated by the source.

Test: mn = molality of the nth substance listed, in mol/kg
Settings: 293 K, 100 kPa, Liquid, Alternating current cell with electrodes

CCC(=O)[O-].OCC[NH2+]CCO [bis(2-hydroxyethyl)ammonium propanoate] + O
Settings	electrical conductivity [S/m]
m1 = 0.01926	0.109 ± 0.011
m1 = 0.01974	0.104 ± 0.012
m1 = 0.03749	0.196 ± 0.015
m1 = 0.0377	0.192 ± 0.015
m1 = 0.05722	0.296 ± 0.021
m1 = 0.05727	0.296 ± 0.021
m1 = 0.07596	0.375 ± 0.026
m1 = 0.0761	0.365 ± 0.026
m1 = 0.0957	0.456 ± 0.033
m1 = 0.09617	0.447 ± 0.032
m1 = 0.1142	0.528 ± 0.04
m1 = 0.1152	0.519 ± 0.039
m1 = 0.1335	0.601 ± 0.047
m1 = 0.135	0.596 ± 0.047
m1 = 0.1519	0.67 ± 0.054
m1 = 0.1542	0.668 ± 0.054
m1 = 0.1707	0.737 ± 0.062
m1 = 0.1718	0.725 ± 0.06
m1 = 0.1845	0.785 ± 0.067
m1 = 0.1898	0.798 ± 0.069
m1 = 0.2029	0.849 ± 0.075
m1 = 0.2071	0.875 ± 0.078
m1 = 0.22	0.901 ± 0.082
m1 = 0.2243	0.942 ± 0.087
m1 = 0.2375	0.955 ± 0.093
m1 = 0.2406	0.997 ± 0.098
m1 = 0.2535	1 ± 0.095
m1 = 0.2571	1.03 ± 0.099
m1 = 0.2696	1.05 ± 0.1
m1 = 0.2722	1.08 ± 0.11
m1 = 0.285	1.09 ± 0.11
m1 = 0.2875	1.12 ± 0.12
m1 = 0.3002	1.13 ± 0.11
m1 = 0.3019	1.17 ± 0.12
m1 = 0.3142	1.17 ± 0.12
m1 = 0.3162	1.16 ± 0.12
m1 = 0.3282	1.21 ± 0.13
m1 = 0.3293	1.23 ± 0.13
m1 = 0.3413	1.24 ± 0.13
m1 = 0.3424	1.27 ± 0.14
m1 = 0.3538	1.27 ± 0.14
m1 = 0.3545	1.31 ± 0.14
m1 = 0.3658	1.3 ± 0.14
m1 = 0.366	1.35 ± 0.15
m1 = 0.3774	1.39 ± 0.16
m1 = 0.3775	1.32 ± 0.14
m1 = 0.3881	1.41 ± 0.16
m1 = 0.3884	1.36 ± 0.15
m1 = 0.3986	1.44 ± 0.17
m1 = 0.3992	1.39 ± 0.16
m1 = 0.4083	1.47 ± 0.17
m1 = 0.4092	1.41 ± 0.16
m1 = 0.418	1.5 ± 0.18
m1 = 0.419	1.44 ± 0.17
m1 = 0.4271	1.53 ± 0.18
m1 = 0.4283	1.46 ± 0.17
m1 = 0.4361	1.55 ± 0.19
m1 = 0.4372	1.49 ± 0.17
m1 = 0.4445	1.57 ± 0.19
m1 = 0.4457	1.51 ± 0.18
m1 = 0.4527	1.6 ± 0.2
m1 = 0.4539	1.53 ± 0.18
m1 = 0.4617	1.56 ± 0.19
m1 = 0.4692	1.58 ± 0.19
m1 = 0.4759	1.59 ± 0.19

CC(=O)[O-].C[NH2+]CCO [N-methyl-2-hydroxyethylammonium acetate] + O
Settings	electrical conductivity
m1 = 0.01579	0.077 ± 0.013 S/m
m1 = 0.01797	0.09 ± 0.013 S/m
m1 = 0.03269	0.14 ± 0.018 S/m
m1 = 0.03539	0.162 ± 0.019 S/m
m1 = 0.05165	0.21 ± 0.028 S/m
m1 = 0.05369	0.236 ± 0.029 S/m
m1 = 0.06943	0.29 ± 0.02 S/m
m1 = 0.07132	0.318 ± 0.022 S/m
m1 = 0.08822	0.356 ± 0.037 S/m
m1 = 0.09023	0.385 ± 0.039 S/m
m1 = 0.1063	0.507 ± 0.063 S/m
m1 = 0.1084	0.453 ± 0.061 S/m
m1 = 0.1255	0.561 ± 0.043 S/m
m1 = 0.1264	0.551 ± 0.042 S/m
m1 = 0.1433	0.607 ± 0.047 S/m
m1 = 0.1458	0.612 ± 0.048 S/m
m1 = 0.162	0.66 ± 0.053 S/m
m1 = 0.1641	0.665 ± 0.053 S/m
m1 = 0.1793	0.705 ± 0.058 S/m
m1 = 0.1809	0.713 ± 0.059 S/m
m1 = 0.1972	0.75 ± 0.063 S/m
m1 = 0.1983	0.762 ± 0.064 S/m
m1 = 0.2133	0.804 ± 0.069 S/m
m1 = 0.2134	0.787 ± 0.067 S/m
m1 = 0.2303	0.833 ± 0.073 S/m
m1 = 0.2308	0.838 ± 0.074 S/m
m1 = 0.2458	0.87 ± 0.078 S/m
m1 = 0.246	0.877 ± 0.079 S/m
m1 = 0.2615	0.899 ± 0.081 S/m
m1 = 0.2616	0.861 ± 0.076 S/m
m1 = 0.276	0.893 ± 0.081 S/m
m1 = 0.2762	0.942 ± 0.087 S/m
m1 = 0.2904	0.926 ± 0.085 S/m
m1 = 0.2909	0.968 ± 0.091 S/m
m1 = 0.3042	0.957 ± 0.089 S/m
m1 = 0.3044	0.998 ± 0.095 S/m
m1 = 0.3175	1.01 ± 0.097 S/m
m1 = 0.3178	1.03 ± 0.099 S/m
m1 = 0.3298	1.04 ± 0.1 S/m
m1 = 0.3302	1.04 ± 0.1 S/m
m1 = 0.3422	1.07 ± 0.1 S/m
m1 = 0.3425	1.08 ± 0.11 S/m
m1 = 0.354	1.11 ± 0.11 S/m
m1 = 0.3542	1.1 ± 0.11 S/m
m1 = 0.3654	1.13 S/m and 1.12 S/m
m1 = 0.376	1.16 ± 0.12 S/m
m1 = 0.3765	1.15 ± 0.12 S/m
m1 = 0.3868	1.17 ± 0.12 S/m
m1 = 0.3967	1.19 ± 0.12 S/m
m1 = 0.4065	1.21 ± 0.13 S/m
m1 = 0.4155	1.24 ± 0.13 S/m
m1 = 0.4245	1.27 ± 0.14 S/m

CCCC(=O)[O-].[NH3+]CCO [2-hydroxy ethylammonium butanoate] + O
Settings	electrical conductivity [S/m]
m1 = 0.01855	0.092 ± 0.015
m1 = 0.0207	0.107 ± 0.015
m1 = 0.03507	0.163 ± 0.013
m1 = 0.0415	0.196 ± 0.015
m1 = 0.05678	0.264 ± 0.019
m1 = 0.06247	0.295 ± 0.02
m1 = 0.07651	0.338 ± 0.023
m1 = 0.08283	0.372 ± 0.026
m1 = 0.09713	0.41 ± 0.029
m1 = 0.1049	0.449 ± 0.032
m1 = 0.119	0.485 ± 0.035
m1 = 0.1258	0.511 ± 0.038
m1 = 0.1407	0.563 ± 0.043
m1 = 0.1476	0.585 ± 0.045
m1 = 0.1628	0.637 ± 0.051
m1 = 0.1681	0.649 ± 0.052
m1 = 0.184	0.709 ± 0.058
m1 = 0.1888	0.711 ± 0.059
m1 = 0.2055	0.77 ± 0.065
m1 = 0.2087	0.764 ± 0.065
m1 = 0.2251	0.834 ± 0.074
m1 = 0.2284	0.81 ± 0.072
m1 = 0.2448	0.894 ± 0.089
m1 = 0.2469	0.857 ± 0.084
m1 = 0.2626	0.946 ± 0.094
m1 = 0.2654	0.9 ± 0.088
m1 = 0.2809	0.994 ± 0.095
m1 = 0.2825	0.94 ± 0.087
m1 = 0.298	1.04 ± 0.12
m1 = 0.3001	0.982 ± 0.11
m1 = 0.3153	1.09 ± 0.11
m1 = 0.3165	1.02 ± 0.098
m1 = 0.331	1.12 ± 0.11
m1 = 0.3327	1.06 ± 0.1
m1 = 0.3468	1.17 ± 0.12
m1 = 0.3475	1.09 ± 0.11
m1 = 0.3613	1.2 ± 0.13
m1 = 0.3622	1.12 ± 0.11
m1 = 0.3758	1.15 ± 0.12
m1 = 0.3759	1.23 ± 0.13
m1 = 0.3892	1.27 ± 0.14
m1 = 0.3894	1.18 ± 0.12
m1 = 0.4021	1.2 ± 0.12
m1 = 0.4023	1.3 ± 0.14
m1 = 0.4144	1.23 ± 0.13
m1 = 0.4145	1.32 ± 0.14
m1 = 0.4231	1.34 ± 0.15
m1 = 0.4259	1.25 ± 0.13
m1 = 0.4344	1.36 ± 0.15
m1 = 0.4374	1.27 ± 0.14
m1 = 0.4449	1.39 ± 0.16
m1 = 0.448	1.29 ± 0.14
m1 = 0.4554	1.41 ± 0.16
m1 = 0.4584	1.32 ± 0.14
m1 = 0.4651	1.43 ± 0.16
m1 = 0.4681	1.33 ± 0.15
m1 = 0.4746	1.45 ± 0.17
m1 = 0.4775	1.35 ± 0.15
m1 = 0.4835	1.46 ± 0.17
m1 = 0.4864	1.38 ± 0.15
m1 = 0.4922	1.48 ± 0.17
m1 = 0.495	1.4 ± 0.16
m1 = 0.5005	1.5 ± 0.18
m1 = 0.5032	1.41 ± 0.16
m1 = 0.5085	1.52 ± 0.18
m1 = 0.516	1.54 ± 0.18
m1 = 0.5231	1.55 ± 0.19
